Target: T1, Human autotaxin enzyme (Homo sapiens, UniProt Q13822)
T1 construct: purchased R&D System
Experiment: Evaluation of autotaxin inhibitor, 18:0 Lyso PC / choline assay (Test Example 2)
Assay type: biochemical
Details: human autotaxin enzyme, 18:0 Lyso PC substrate, choline assay, room temperature 2 hours; read-out: Inhibitor activity (IC50)
Description: Solution B containing 100 mM Tris-HCl buffer (pH7.5), 150 mM NaCl, 5 mM MgCl2, and 0.05% Triton X-100 was prepared. Human autotaxin enzyme (purchased from R&D System) was diluted with Solution B, and 2.5 μl of which was added to a solution of test compound in DMSO. Furthermore, 2.5 μl of 200 μM 18:0 Lyso PC (purchased from Avanti Polar Lipids) in Solution B was added and allowed to react at room temperature for 2 hours. After completion of the reaction, 15 μl of the coline assay reagent. (100 mM Tris-HCl buffer (pH7.5), 5 mM. MgCl2, 77 μg/ml coline oxidase, 10 μg/ml peroxydase, 25μM 10-acetyl-3,7-dihydroxyphenoxazine, and excess autotaxin inhibitor) was added and allowed to react at room temperature for 20 minutes. The fluorescent dye Resorufin, which was produced by the reaction, was detected. The fluorescence was detected using ViewLux
(PerkinElmer, Inc.) with a excitation wavelength of 531 nm and a fluorescence wavelength of 598 nm.
The percent inhibition of the test compound was calculated by assuming the sample with no test compound as 0% inhibition and the sample with no enzyme as 100% inhibition, and the percent inhibitions at different concentrations of the test compound were plotted to obtain a concentration-dependent curve.

Structure (SMILES) | IC50 [nM]
CCCCCc1nc(-c2ccc(Cl)cc2)cc(=O)n1Cc1cccc(C(=O)OC)c1 [Compound I-0074] | ≥ 1000
CCCCCc1nc(-c2ccc(Cl)cc2)cc(=O)n1CC(=O)NC(CO)Cc1ccc(F)cc1 (stereo not shown) [Compound I-0075] | ≥ 1000
CCCCCc1nc(-c2ccc(Cl)cc2)cc(=O)n1CC(=O)N1CCOCC1c1ccccc1 (stereo not shown) [Compound I-0076] | 100 to 1000
CCCCCc1nc(-c2ccc(Cl)cc2)cc(=O)n1CC(=O)NC1(C#N)CCCCC1 [Compound I-0077] | 100 to 1000
CCCCCc1nc(-c2ccc(Cl)cc2)cc(=O)n1CC(=O)N[C@@H]1CN2CCC1CC2 [Compound I-0078] | ≥ 1000
CCCCCc1nc(-c2ccc(Cl)cc2)cc(=O)n1CC(=O)NC(C)CC#N (stereo not shown) [Compound I-0079] | 10 to 100
CCCCCc1nc(-c2ccc(Cl)cc2)cc(=O)n1CC(=O)NCCC#N [Compound I-0080] | 10 to 100
CCCCCc1nc(-c2ccc(Cl)cc2)cc(=O)n1CC(=O)NC1CCS(=O)(=O)C1 (stereo not shown) [Compound I-0081] | 10 to 100
CCCCCc1nc(-c2ccc(Cl)cc2)cc(=O)n1CC(=O)NC1CCCNC1=O (stereo not shown) [Compound I-0082] | 100 to 1000
CCCCCc1nc(-c2ccc(Cl)cc2)cc(=O)n1CC(=O)Nc1ncc(C#N)s1 [Compound I-0083] | ≥ 1000
CCCCCc1nc(-c2ccc(Cl)cc2)cc(=O)n1CC(=O)N1CCOCC1 [Compound I-0084] | 10 to 100
CCCCCc1nc(-c2ccc(Cl)cc2)cc(=O)n1CC(=O)NCC#N [Compound I-0085] | 10 to 100
CCCCCc1nc(-c2ccc(Cl)cc2)cc(=O)n1CC(=O)NC1CCOCC1 [Compound I-0086] | 100 to 1000
CCCCCc1nc(-c2ccc(Cl)cc2)cc(=O)n1CC(=O)N1CCC(F)(F)CC1 [Compound I-0087] | 10 to 100
CCCCCc1nc(-c2ccc(Cl)cc2)cc(=O)n1CC(=O)NCC(O)Cc1ccccc1 (stereo not shown) [Compound I-0088] | 10 to 100
CCCCCc1nc(-c2ccc(Cl)cc2)cc(=O)n1CC(=O)NC1(c2cccnc2)CC1 [Compound I-0089] | 10 to 100
CCCCCc1nc(-c2ccc(Cl)cc2)cc(=O)n1CC(=O)NC1(C#N)CC1 [Compound I-0090] | 10 to 100
CCCCCc1nc(-c2ccc(Cl)cc2)cc(=O)n1CC(=O)N1CC2(COC2)C1 [Compound I-0091] | ≥ 1000
CCCCCc1nc(-c2ccc(Cl)cc2)cc(=O)n1CC(=O)N[C@@H](CO)Cc1ccccc1 [Compound I-0092] | 100 to 1000
CCCCCc1nc(-c2ccc(Cl)cc2)cc(=O)n1CC(=O)NC1CCS(=O)(=O)CC1 [Compound I-0093] | 10 to 100
CCCCCc1nc(-c2ccc(Cl)cc2)cc(=O)n1CC(=O)NCCS(C)(=O)=O [Compound I-0094] | 10 to 100
CCCCCc1nc(-c2ccc(Cl)cc2)cc(=O)n1CC(=O)N1[C@H](C)COC[C@@H]1C [Compound I-0095] | 10 to 100
CCCCCc1nc(-c2ccc(Cl)cc2)cc(=O)n1CC(=O)NCCC(C)O (stereo not shown) [Compound I-0096] | 100 to 1000
CCCCCc1nc(-c2ccc(Cl)cc2)cc(=O)n1CC(=O)N[C@@H]1CCN(C(C)=O)C1 [Compound I-0097] | 100 to 1000

Structure (SMILES) | IC50 [nM]
CCCCCc1nc(-c2ccc(Cl)cc2)cc(=O)n1CC(=O)NCC(C)(C)O [Compound I-0098] | 10 to 100
CCCCCc1nc(-c2ccc(Cl)cc2)cc(=O)n1CC(=O)Nc1cc(C2CC2)no1 [Compound I-0099] | ≥ 1000
CCCCCc1nc(-c2ccc(Cl)cc2)cc(=O)n1CC(=O)N1CCOC(c2ccccc2)C1 (stereo not shown) [Compound I-0100] | 100 to 1000
CCCCCc1nc(-c2ccc(Cl)cc2)cc(=O)n1CC(=O)N[C@@H](CCc1ccccc1)C(=O)O [Compound I-0101] | 10 to 100
CCCCCc1nc(-c2ccc(Cl)cc2)cc(=O)n1CC(=O)NCCCc1ccccc1 [Compound I-0102] | 100 to 1000
CCCCCc1nc(-c2ccc(Cl)cc2)cc(=O)n1CC(=O)NCCc1ccccc1 [Compound I-0103] | 10 to 100
CCCCCc1nc(-c2ccc(Cl)cc2)cc(=O)n1CC(=O)NC1CN2CCC1CC2 (stereo not shown) [Compound I-0104] | 100 to 1000
N#CCCCNc1nc(-c2ccc(C#N)cc2)cc(=O)n1Cc1ccccc1 [Compound I-0105] | 100 to 1000
N#CCNc1nc(-c2ccc(C#N)cc2)cc(=O)n1Cc1ccccc1 [Compound I-0106] | ≥ 1000
COc1ccc(Cn2c(-c3ccc(Cl)cc3)cc(=O)n(CC(=O)NC(Cc3ccccc3)C(=O)O)c2=O)cc1 (stereo not shown) [Compound I-0107] | ≥ 1000
Cn1c(=O)cc(-c2ccc(Cl)cc2)n(CCCC#N)c1=N [Compound I-0108] | ≥ 1000
COC(=O)Cn1c(CCCC(F)(F)F)nc(-c2ccc(Cl)cc2)cc1=O [Compound I-0109] | 10 to 100
O=C(O)Cn1c(CCCC(F)(F)F)nc(-c2ccc(Cl)cc2)cc1=O [Compound I-0110] | ≥ 1000
COC(=O)c1cccc(Cn2c(CCCC(F)(F)F)nc(-c3ccc(Cl)cc3)cc2=O)c1 [Compound I-0111] | 10 to 100
O=C(O)c1cccc(Cn2c(CCCC(F)(F)F)nc(-c3ccc(Cl)cc3)cc2=O)c1 [Compound I-0112] | 10 to 100
CCCCCc1nc(-c2ccc(Cl)cc2)cc(=O)n1CC(=O)N1CCC(C(=O)OC)CC1 [Compound I-0113] | 10 to 100
CCCCCc1nc(-c2ccc(Cl)cc2)cc(=O)n1CC(=O)NC(C)(C)C(=O)OC [Compound I-0114] | 10 to 100
N#CCCCn1c(-c2ccc(Cl)cc2)cc(=O)n(CC(=O)NC(Cc2ccccc2)C(=O)O)c1=O (stereo not shown) [Compound I-0115] | ≥ 1000
N#CCCCOc1nc(-c2ccc(Cl)cc2)cc(=O)n1CC(=O)NC(Cc1ccccc1)C(=O)O (stereo not shown) [Compound I-0116] | 10 to 100
O=C(Cn1c(CCCC(F)(F)F)nc(-c2ccc(Cl)cc2)cc1=O)N(CCO)CCO [Compound I-0117] | 10 to 100
NC(=O)C1CCN(C(=O)Cn2c(CCCC(F)(F)F)nc(-c3ccc(Cl)cc3)cc2=O)CC1 [Compound I-0118] | 10 to 100
CC(O)CNC(=O)Cn1c(CCCC(F)(F)F)nc(-c2ccc(Cl)cc2)cc1=O (stereo not shown) [Compound I-0119] | 10 to 100
O=C(Cn1c(CCCC(F)(F)F)nc(-c2ccc(Cl)cc2)cc1=O)NCc1cc(=O)[nH]o1 [Compound I-0120] | < 10
O=C(Cn1c(CCCC(F)(F)F)nc(-c2ccc(Cl)cc2)cc1=O)NCCN1CCNC1=O [Compound I-0121] | 100 to 1000

Structure (SMILES) | IC50 [nM]
CC(C)(CNC(=O)Cn1c(CCCC(F)(F)F)nc(-c2ccc(Cl)cc2)cc1=O)N1CCOCC1 [Compound I-0122] | 100 to 1000
N#CC1(NC(=O)Cn2c(CCCC(F)(F)F)nc(-c3ccc(Cl)cc3)cc2=O)CC1 [Compound I-0123] | 10 to 100
O=C(Cn1c(CCCC(F)(F)F)nc(-c2ccc(Cl)cc2)cc1=O)NCC1(CO)CC1 [Compound I-0124] | 10 to 100
C[C@@H]1COC[C@H](C)N1C(=O)Cn1c(CCCC(F)(F)F)nc(-c2ccc(Cl)cc2)cc1=O [Compound I-0125] | 10 to 100
CNC(=O)CNC(=O)Cn1c(CCCC(F)(F)F)nc(-c2ccc(Cl)cc2)cc1=O [Compound I-0126] | 100 to 1000
CN(C)C(=O)CNC(=O)Cn1c(CCCC(F)(F)F)nc(-c2ccc(Cl)cc2)cc1=O [Compound I-0127] | 100 to 1000
CCNC(=O)N1CCC(NC(=O)Cn2c(CCCC(F)(F)F)nc(-c3ccc(Cl)cc3)cc2=O)CC1 [Compound I-0128] | 10 to 100
CNC(=O)CN1CCC(NC(=O)Cn2c(CCCC(F)(F)F)nc(-c3ccc(Cl)cc3)cc2=O)CC1 [Compound I-0129] | 100 to 1000
O=C(Cn1c(CCCC(F)(F)F)nc(-c2ccc(Cl)cc2)cc1=O)N1CCC(O)(CO)CC1 [Compound I-0130] | 10 to 100
O=C(Cn1c(CCCC(F)(F)F)nc(-c2ccc(Cl)cc2)cc1=O)N1CCN(CCO)CC1 [Compound I-0131] | 10 to 100
CN(CC(O)CO)C(=O)Cn1c(CCCC(F)(F)F)nc(-c2ccc(Cl)cc2)cc1=O (stereo not shown) [Compound I-0132] | 100 to 1000
NS(=O)(=O)CCNC(=O)Cn1c(CCCC(F)(F)F)nc(-c2ccc(Cl)cc2)cc1=O [Compound I-0133] | 10 to 100
CC(C)(O)CNC(=O)Cn1c(CCCC(F)(F)F)nc(-c2ccc(Cl)cc2)cc1=O [Compound I-0134] | < 10
O=C(Cn1c(CCCC(F)(F)F)nc(-c2ccc(Cl)cc2)cc1=O)NC(CO)(CO)CO [Compound I-0135] | 10 to 100
N#CCCN1CCN(C(=O)Cn2c(CCCC(F)(F)F)nc(-c3ccc(Cl)cc3)cc2=O)CC1 [Compound I-0136] | 100 to 1000
N#CCCNC(=O)Cn1c(CCCC(F)(F)F)nc(-c2ccc(Cl)cc2)cc1=O [Compound I-0137] | 10 to 100
O=C(Cn1c(CCCC(F)(F)F)nc(-c2ccc(Cl)cc2)cc1=O)NCCCS(=O)(=O)O [Compound I-0138] | < 10
O=C(Cn1c(CCCC(F)(F)F)nc(-c2ccc(Cl)cc2)cc1=O)N1CCOC(CO)C1 (stereo not shown) [Compound I-0139] | 10 to 100
O=C(Cn1c(CCCC(F)(F)F)nc(-c2ccc(Cl)cc2)cc1=O)NCCOCCOCCO [Compound I-0140] | 100 to 1000
Cc1noc(CNC(=O)Cn2c(CCCC(F)(F)F)nc(-c3ccc(Cl)cc3)cc2=O)n1 [Compound I-0141] | 10 to 100
O=C(Cn1c(CCCC(F)(F)F)nc(-c2ccc(Cl)cc2)cc1=O)NCc1ccnc(O)c1 [Compound I-0142] | 100 to 1000
O=C(Cn1c(CCCC(F)(F)F)nc(-c2ccc(Cl)cc2)cc1=O)NC1CCS(=O)(=O)C1 (stereo not shown) [Compound I-0143] | 10 to 100
